Source: the supplement of paper PMC10307832

How the values were obtained:
Test in all cases: relative viability (nuclei count vs DMSO), 5 days (fraction); higher = more cells survive
TPCA-1 + Palbociclib = compound: C1=CC(=CC=C1C2=CC(=C(S2)NC(=O)N)C(=O)N)F [TPCA-1] + CC(=O)c1c(C)c2cnc(Nc3ccc(N4CCNCC4)cn3)nc2n(C2CCCC2)c1=O [Palbociclib] (partner 0.5 µM)
How it was run: (§1)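 Five library-drug doses in √10 steps were combined with a fixed anchor-drug dose, or a single drug was given alone, by pin tool to lung cancer cell lines in 1536-well plates the day after seeding. Nuclei were stained and counted after 5 days. Relative viability is the nuclei count in treated wells over that in vehicle wells, taken as the median of duplicate plates.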

[1] = compound: C[C@]12O[C@H](C[C@]1(O)CO)n1c3ccccc3c3c4c(c5c6ccccc6n2c5c31)CNC4=O [Lestaurtinib] + O=C(CCCCCCC(=O)Nc1ccccc1)NO [Vorinostat] (partner 1 µM)
How it was run: as §1

[2] = compound: C1/C(=C\C2=CC=CS2)/C(=O)/C(=C/C3=CC=CS3)/C1 + C[C@@H](Oc1cc(-c2cnn(C3CCNCC3)c2)cnc1N)c1c(Cl)ccc(F)c1Cl [Crizotinib] (partner 1 µM)
How it was run: as §1

201T
relative viability (TPCA-1 + Palbociclib; first compound 0.04 µM): 0.376 | relative viability (TPCA-1 + Palbociclib; first compound 0.1265 µM): 0.362 | relative viability (TPCA-1 + Palbociclib; first compound 0.4 µM): 0.385 | relative viability (TPCA-1 + Palbociclib; first compound 1.265 µM): 0.386 | relative viability (TPCA-1 + Palbociclib; first compound 4 µM): 0.363 | relative viability ([1]; first compound 0.005 µM): 1.03 | relative viability ([1]; first compound 0.01581 µM): 1.12 | relative viability ([1]; first compound 0.05 µM): 1.01 | relative viability ([1]; first compound 0.1581 µM): 0.927 | relative viability ([1]; first compound 0.5 µM): 0.771 | relative viability ([2]; first compound 0.2 µM): 1.05 | relative viability ([2]; first compound 0.6325 µM): 1.04 | relative viability ([2]; first compound 2 µM): 1.07 | relative viability ([2]; first compound 6.325 µM): 0.996 | relative viability ([2]; first compound 20 µM): 1.01

NCI-H1734
relative viability (TPCA-1 + Palbociclib; first compound 0.04 µM): 0.352 | relative viability (TPCA-1 + Palbociclib; first compound 0.1265 µM): 0.313 | relative viability (TPCA-1 + Palbociclib; first compound 0.4 µM): 0.388 | relative viability (TPCA-1 + Palbociclib; first compound 1.265 µM): 0.363 | relative viability (TPCA-1 + Palbociclib; first compound 4 µM): 0.307 | relative viability ([1]; first compound 0.005 µM): 0.872 | relative viability ([1]; first compound 0.01581 µM): 0.824 | relative viability ([1]; first compound 0.05 µM): 0.525 | relative viability ([1]; first compound 0.1581 µM): 0.258 | relative viability ([1]; first compound 0.5 µM): 0.212 | relative viability ([2]; first compound 0.2 µM): 0.617 | relative viability ([2]; first compound 0.6325 µM): 0.78 | relative viability ([2]; first compound 2 µM): 0.631 | relative viability ([2]; first compound 6.325 µM): 0.606 | relative viability ([2]; first compound 20 µM): 0.731

NCI-H520
relative viability (TPCA-1 + Palbociclib; first compound 0.04 µM): 0.281 | relative viability (TPCA-1 + Palbociclib; first compound 0.1265 µM): 0.162 | relative viability (TPCA-1 + Palbociclib; first compound 0.4 µM): 0.164 | relative viability (TPCA-1 + Palbociclib; first compound 1.265 µM): 0.282 | relative viability (TPCA-1 + Palbociclib; first compound 4 µM): 0.232 | relative viability ([1]; first compound 0.005 µM): 0.68 | relative viability ([1]; first compound 0.01581 µM): 0.675 | relative viability ([1]; first compound 0.05 µM): 0.632 | relative viability ([1]; first compound 0.1581 µM): 0.371 | relative viability ([1]; first compound 0.5 µM): 0.211 | relative viability ([2]; first compound 0.2 µM): 0.882 | relative viability ([2]; first compound 0.6325 µM): 0.966 | relative viability ([2]; first compound 2 µM): 0.715 | relative viability ([2]; first compound 6.325 µM): 0.655 | relative viability ([2]; first compound 20 µM): 0.751

NCI-H1650
relative viability (TPCA-1 + Palbociclib; first compound 0.04 µM): 0.323 | relative viability (TPCA-1 + Palbociclib; first compound 0.1265 µM): 0.309 | relative viability (TPCA-1 + Palbociclib; first compound 0.4 µM): 0.408 | relative viability (TPCA-1 + Palbociclib; first compound 1.265 µM): 0.474 | relative viability (TPCA-1 + Palbociclib; first compound 4 µM): 0.354 | relative viability ([1]; first compound 0.005 µM): 0.667 | relative viability ([1]; first compound 0.01581 µM): 0.528 | relative viability ([1]; first compound 0.05 µM): 0.784 | relative viability ([1]; first compound 0.1581 µM): 0.54 | relative viability ([1]; first compound 0.5 µM): 0.491 | relative viability ([2]; first compound 0.2 µM): 1.16 | relative viability ([2]; first compound 0.6325 µM): 1.02 | relative viability ([2]; first compound 2 µM): 1.14 | relative viability ([2]; first compound 6.325 µM): 0.605 | relative viability ([2]; first compound 20 µM): 0.923

NCI-H1355
relative viability (TPCA-1 + Palbociclib; first compound 0.04 µM): 0.455 | relative viability (TPCA-1 + Palbociclib; first compound 0.1265 µM): 0.395 | relative viability (TPCA-1 + Palbociclib; first compound 0.4 µM): 0.408 | relative viability (TPCA-1 + Palbociclib; first compound 1.265 µM): 0.389 | relative viability (TPCA-1 + Palbociclib; first compound 4 µM): 0.361 | relative viability ([1]; first compound 0.005 µM): 0.733 | relative viability ([1]; first compound 0.01581 µM): 0.675 | relative viability ([1]; first compound 0.05 µM): 0.457 | relative viability ([1]; first compound 0.1581 µM): 0.412 | relative viability ([1]; first compound 0.5 µM): 0.31 | relative viability ([2]; first compound 0.2 µM): 1.19 | relative viability ([2]; first compound 0.6325 µM): 1.05 | relative viability ([2]; first compound 2 µM): 1.03 | relative viability ([2]; first compound 6.325 µM): 0.943 | relative viability ([2]; first compound 20 µM): 1.08

NCI-H1915
relative viability (TPCA-1 + Palbociclib; first compound 0.04 µM): 0.568 | relative viability (TPCA-1 + Palbociclib; first compound 0.1265 µM): 0.475 | relative viability (TPCA-1 + Palbociclib; first compound 0.4 µM): 0.515 | relative viability (TPCA-1 + Palbociclib; first compound 1.265 µM): 0.516 | relative viability (TPCA-1 + Palbociclib; first compound 4 µM): 0.465 | relative viability ([1]; first compound 0.005 µM): 0.512 | relative viability ([1]; first compound 0.01581 µM): 0.489 | relative viability ([1]; first compound 0.05 µM): 0.427 | relative viability ([1]; first compound 0.1581 µM): 0.325 | relative viability ([1]; first compound 0.5 µM): 0.162 | relative viability ([2]; first compound 0.2 µM): 0.86 | relative viability ([2]; first compound 0.6325 µM): 0.951 | relative viability ([2]; first compound 2 µM): 0.912 | relative viability ([2]; first compound 6.325 µM): 0.841 | relative viability ([2]; first compound 20 µM): 0.893

BEN
relative viability (TPCA-1 + Palbociclib; first compound 0.04 µM): 0.474 | relative viability (TPCA-1 + Palbociclib; first compound 0.1265 µM): 0.468 | relative viability (TPCA-1 + Palbociclib; first compound 0.4 µM): 0.531 | relative viability (TPCA-1 + Palbociclib; first compound 1.265 µM): 0.577 | relative viability (TPCA-1 + Palbociclib; first compound 4 µM): 0.422 | relative viability ([1]; first compound 0.005 µM): 0.631 | relative viability ([1]; first compound 0.01581 µM): 0.704 | relative viability ([1]; first compound 0.05 µM): 0.59 | relative viability ([1]; first compound 0.1581 µM): 0.477 | relative viability ([1]; first compound 0.5 µM): 0.309 | relative viability ([2]; first compound 0.2 µM): 0.941 | relative viability ([2]; first compound 0.6325 µM): 0.947 | relative viability ([2]; first compound 2 µM): 1.02 | relative viability ([2]; first compound 6.325 µM): 0.861 | relative viability ([2]; first compound 20 µM): 0.706

NCI-H1563
relative viability ([2]; first compound 0.2 µM): 0.843 | relative viability ([2]; first compound 0.6325 µM): 0.887 | relative viability ([2]; first compound 2 µM): 0.899 | relative viability ([2]; first compound 6.325 µM): 0.832 | relative viability ([2]; first compound 20 µM): 0.987

NCI-H1648
relative viability (TPCA-1 + Palbociclib; first compound 0.04 µM): 0.254 | relative viability (TPCA-1 + Palbociclib; first compound 0.1265 µM): 0.245 | relative viability (TPCA-1 + Palbociclib; first compound 0.4 µM): 0.262 | relative viability (TPCA-1 + Palbociclib; first compound 1.265 µM): 0.254 | relative viability (TPCA-1 + Palbociclib; first compound 4 µM): 0.199 | relative viability ([1]; first compound 0.01581 µM): 0.543 | relative viability ([1]; first compound 0.1581 µM): 0.807 | relative viability ([1]; first compound 0.5 µM): 0.29

NCI-H1299
relative viability ([2]; first compound 0.2 µM): 0.958 | relative viability ([2]; first compound 0.6325 µM): 0.976 | relative viability ([2]; first compound 2 µM): 0.928 | relative viability ([2]; first compound 6.325 µM): 0.903 | relative viability ([2]; first compound 20 µM): 0.589

A549
relative viability ([2]; first compound 0.2 µM): 0.825 | relative viability ([2]; first compound 0.6325 µM): 0.813 | relative viability ([2]; first compound 2 µM): 0.823 | relative viability ([2]; first compound 6.325 µM): 0.767 | relative viability ([2]; first compound 20 µM): 0.738

NCI-H1793
relative viability (TPCA-1 + Palbociclib; first compound 0.04 µM): 0.358 | relative viability (TPCA-1 + Palbociclib; first compound 0.1265 µM): 0.301 | relative viability (TPCA-1 + Palbociclib; first compound 0.4 µM): 0.303 | relative viability (TPCA-1 + Palbociclib; first compound 1.265 µM): 0.355 | relative viability (TPCA-1 + Palbociclib; first compound 4 µM): 0.213 | relative viability ([1]; first compound 0.005 µM): 0.531 | relative viability ([1]; first compound 0.01581 µM): 0.884 | relative viability ([1]; first compound 0.05 µM): 0.561 | relative viability ([1]; first compound 0.1581 µM): 0.524 | relative viability ([1]; first compound 0.5 µM): 0.252

NCI-H1703
relative viability ([2]; first compound 0.2 µM): 0.94 | relative viability ([2]; first compound 0.6325 µM): 1.12 | relative viability ([2]; first compound 2 µM): 0.919 | relative viability ([2]; first compound 6.325 µM): 0.585 | relative viability ([2]; first compound 20 µM): 0.737

NCI-H1395
relative viability (TPCA-1 + Palbociclib; first compound 0.04 µM): 0.644 | relative viability (TPCA-1 + Palbociclib; first compound 0.1265 µM): 0.596 | relative viability (TPCA-1 + Palbociclib; first compound 0.4 µM): 0.639 | relative viability (TPCA-1 + Palbociclib; first compound 1.265 µM): 0.635 | relative viability (TPCA-1 + Palbociclib; first compound 4 µM): 0.512 | relative viability ([1]; first compound 0.005 µM): 0.696 | relative viability ([1]; first compound 0.01581 µM): 0.902 | relative viability ([1]; first compound 0.05 µM): 0.607 | relative viability ([1]; first compound 0.1581 µM): 0.47 | relative viability ([1]; first compound 0.5 µM): 0.343

NCI-H522
relative viability (TPCA-1 + Palbociclib; first compound 0.04 µM): 1.15 | relative viability (TPCA-1 + Palbociclib; first compound 0.1265 µM): 0.978 | relative viability (TPCA-1 + Palbociclib; first compound 0.4 µM): 1.06 | relative viability (TPCA-1 + Palbociclib; first compound 1.265 µM): 1.04 | relative viability (TPCA-1 + Palbociclib; first compound 4 µM): 0.953 | relative viability ([1]; first compound 0.005 µM): 0.964 | relative viability ([1]; first compound 0.01581 µM): 1.13 | relative viability ([1]; first compound 0.05 µM): 0.895 | relative viability ([1]; first compound 0.1581 µM): 0.785 | relative viability ([1]; first compound 0.5 µM): 0.474

Calu-6
relative viability ([2]; first compound 0.2 µM): 0.845 | relative viability ([2]; first compound 0.6325 µM): 0.873 | relative viability ([2]; first compound 2 µM): 0.846 | relative viability ([2]; first compound 6.325 µM): 0.764 | relative viability ([2]; first compound 20 µM): 0.772
